# Measured values published in article PMC7317746 (Environmental and Molecular Mutagenesis, 2020).
# Tested on: male Sprague Dawley rats
# Assay: Pig‐a assay
# Type: in vivo, rat
# [1] = 1-Month Study, 250 mg/kg/day, Day 15
# [2] = 1-Month Study, 250 mg/kg/day, Day 29
# [3] = 1-Month Study, 250 mg/kg/day, Day -1 (pre-treatment)
# [4] = 1-Month Study, 500 mg/kg/day, Day 15
# [5] = 1-Month Study, 500 mg/kg/day, Day 29
# [6] = 1-Month Study, 500 mg/kg/day, Day -1 (pre-treatment)
# [7] = 1-Month Study, 1,000 mg/kg/day Days 1-29, Day 57 recovery group
# [8] = 1-Month Study, 1,000 mg/kg/day, Day 15
# [9] = 1-Month Study, 1,000 mg/kg/day, Day 29
# [10] = 1-Month Study, 1,000 mg/kg/day, Day -1 (pre-treatment)
# [11] = 2-Week Study, 250 mg/kg/day Days 1-15, Day 16
# [12] = 2-Week Study, 500 mg/kg/day Days 1-15, Day 16
# [13] = 2-Week Study, 1,000 mg/kg/day Days 1-15, Day 16
# [14] = 3-Day Study, 500 mg/kg/day Days 1-3, Day 15
# [15] = 3-Day Study, 500 mg/kg/day Days 1-3, Day 30
# [16] = 3-Day Study, 500 mg/kg/day Days 1-3, Day 45
# [17] = 3-Day Study, 500 mg/kg/day, Day -4 (pre-treatment)
# [18] = 3-Day Study, 1,000 mg/kg/day Days 1-3, Day 15
structure (smiles),measurement,setting,value
"CC(=O)Nc1ccc(O)cc1 [acetaminophen, Acetaminophen]",%RETs mean ± SD,[1],3.7 ± 0.7%
same,Number of CD59‐Neg RBCs per 10^6 RBCs mean ± SD,[1],0.6 ± 0.4 per 10^6 RBCs
same,Number of CD59‐Neg RETs per 10^6 RETs mean ± SD,[1],1.8 ± 2.8 per 10^6 RETs
same,%RETs mean ± SD,[2],2.9 ± 0.4%
same,Number of CD59‐Neg RBCs per 10^6 RBCs mean ± SD,[2],0.9 ± 0.3 per 10^6 RBCs
same,Number of CD59‐Neg RETs per 10^6 RETs mean ± SD,[2],3.0 ± 2.2 per 10^6 RETs
same,%RETs mean ± SD,[3],5.2 ± 0.6%
same,Number of CD59‐Neg RBCs per 10^6 RBCs mean ± SD,[3],0.7 ± 0.8 per 10^6 RBCs
same,Number of CD59‐Neg RETs per 10^6 RETs mean ± SD,[3],0.6 ± 0.6 per 10^6 RETs
same,%RETs mean ± SD,[4],3.2 ± 0.5%
same,Number of CD59‐Neg RBCs per 10^6 RBCs mean ± SD,[4],0.3 ± 0.2 per 10^6 RBCs
same,Number of CD59‐Neg RETs per 10^6 RETs mean ± SD,[4],1.0 ± 1.0 per 10^6 RETs
same,%RETs mean ± SD,[5],2.0 ± 0.4 %
same,Number of CD59‐Neg RBCs per 10^6 RBCs mean ± SD,[5],0.5 ± 0.1 per 10^6 RBCs
same,Number of CD59‐Neg RETs per 10^6 RETs mean ± SD,[5],1.7 ± 1.9 per 10^6 RETs
same,%RETs mean ± SD,[6],5.5 ± 1.3 %
same,Number of CD59‐Neg RBCs per 10^6 RBCs mean ± SD,[6],0.3 ± 0.1 per 10^6 RBCs
same,Number of CD59‐Neg RETs per 10^6 RETs mean ± SD,[6],0.6 ± 0.7 per 10^6 RETs
same,%RETs mean ± SD,[7],2.8 ± 0.6%
same,Number of CD59‐Neg RBCs per 10^6 RBCs mean ± SD,[7],0.9 ± 0.5 per 10^6 RBCs
same,Number of CD59‐Neg RETs per 10^6 RETs mean ± SD,[7],0.5 ± 0.4 per 10^6 RETs
same,%RETs mean ± SD,[8],2.8 ± 1.4%
same,Number of CD59‐Neg RBCs per 10^6 RBCs mean ± SD,[8],0.6 ± 0.4 per 10^6 RBCs
same,Number of CD59‐Neg RETs per 10^6 RETs mean ± SD,[8],1.6 ± 1.5 per 10^6 RETs
same,%RETs mean ± SD,[9],2.4 ± 0.9%
same,Number of CD59‐Neg RBCs per 10^6 RBCs mean ± SD,[9],1.6 ± 1.6 per 10^6 RBCs
same,Number of CD59‐Neg RETs per 10^6 RETs mean ± SD,[9],4.5 ± 5.9 per 10^6 RETs
same,%RETs mean ± SD,[10],4.6 ± 0.6%
same,Number of CD59‐Neg RBCs per 10^6 RBCs mean ± SD,[10],0.5 ± 0.3 per 10^6 RBCs
same,Number of CD59‐Neg RETs per 10^6 RETs mean ± SD,[10],0.7 ± 0.7 per 10^6 RETs
same,%RETs mean ± SD,[11],2.7 ± 1.0%
same,Number of CD59‐Neg RBCs per 10^6 RBCs mean ± SD,[11],0.7 ± 0.3 per 10^6 RBCs
same,Number of CD59‐Neg RETs per 10^6 RETs mean ± SD,[11],1.4 ± 1.1 per 10^6 RETs
same,%RETs mean ± SD,[12],2.4 ± 0.8 %
same,Number of CD59‐Neg RBCs per 10^6 RBCs mean ± SD,[12],1.1 ± 1.7 per 10^6 RBCs
same,Number of CD59‐Neg RETs per 10^6 RETs mean ± SD,[12],0.4 ± 0.4 per 10^6 RETs
same,%RETs mean ± SD,[13],3.4 ± 0.7%
same,Number of CD59‐Neg RBCs per 10^6 RBCs mean ± SD,[13],0.5 ± 0.3 per 10^6 RBCs
same,Number of CD59‐Neg RETs per 10^6 RETs mean ± SD,[13],1.1 ± 0.9 per 10^6 RETs
same,%RETs mean ± SD,[14],3.6 ± 0.6%
same,Number of CD59‐Neg RBCs per 10^6 RBCs mean ± SD,[14],0.4 ± 0.2 per 10^6 RBCs
same,Number of CD59‐Neg RETs per 10^6 RETs mean ± SD,[14],0.9 ± 0.7 per 10^6 RETs
same,%RETs mean ± SD,[15],3.1 ± 0.2%
same,Number of CD59‐Neg RBCs per 10^6 RBCs mean ± SD,[15],0.5 ± 0.3 per 10^6 RBCs
same,Number of CD59‐Neg RETs per 10^6 RETs mean ± SD,[15],1.2 ± 1.2 per 10^6 RETs
same,%RETs mean ± SD,[16],2.7 ± 0.4%
same,Number of CD59‐Neg RBCs per 10^6 RBCs mean ± SD,[16],0.4 ± 0.2 per 10^6 RBCs
same,Number of CD59‐Neg RETs per 10^6 RETs mean ± SD,[16],0.7 ± 1.3 per 10^6 RETs
same,%RETs mean ± SD,[17],3.3 ± 0.8%
same,Number of CD59‐Neg RBCs per 10^6 RBCs mean ± SD,[17],0.4 ± 0.2 per 10^6 RBCs
same,Number of CD59‐Neg RETs per 10^6 RETs mean ± SD,[17],2.0 ± 2.1 per 10^6 RETs
same,%RETs mean ± SD,[18],4.8 ± 0.8 %
same,Number of CD59‐Neg RBCs per 10^6 RBCs mean ± SD,[18],0.6 ± 0.2 per 10^6 RBCs
same,Number of CD59‐Neg RETs per 10^6 RETs mean ± SD,[18],1.8 ± 2.4 per 10^6 RETs
same,%RETs mean ± SD,"3-Day Study, 1,000 mg/kg/day Days 1-3, Day 30",3.3 ± 0.4%
